Patent US20130102009A1, “SIRTUIN ACTIVATORS AND ACTIVATION ASSAYS” (priority 2010, published 2013)
Peptide text beside a SMILES is read from it. * marks the point of attachment. AMC = Cc1cc(=O)oc2cc(N*)ccc12

Key:
SIRT1 = target: T1, SIRT1 (Homo sapiens, UniProt Q96EB6); assay: Steady-state kinetic parameters for SIRT1 substrates (PNC1-GDH-coupled assay); assay type: biochemical; set-up: kc/K1: unit not given here; settings: 25° C., pH 7.5, [NAD+]o = 2 mM, [SIRT1]o 50-1,000 nM
T1 sequence (Q96EB6 1-747): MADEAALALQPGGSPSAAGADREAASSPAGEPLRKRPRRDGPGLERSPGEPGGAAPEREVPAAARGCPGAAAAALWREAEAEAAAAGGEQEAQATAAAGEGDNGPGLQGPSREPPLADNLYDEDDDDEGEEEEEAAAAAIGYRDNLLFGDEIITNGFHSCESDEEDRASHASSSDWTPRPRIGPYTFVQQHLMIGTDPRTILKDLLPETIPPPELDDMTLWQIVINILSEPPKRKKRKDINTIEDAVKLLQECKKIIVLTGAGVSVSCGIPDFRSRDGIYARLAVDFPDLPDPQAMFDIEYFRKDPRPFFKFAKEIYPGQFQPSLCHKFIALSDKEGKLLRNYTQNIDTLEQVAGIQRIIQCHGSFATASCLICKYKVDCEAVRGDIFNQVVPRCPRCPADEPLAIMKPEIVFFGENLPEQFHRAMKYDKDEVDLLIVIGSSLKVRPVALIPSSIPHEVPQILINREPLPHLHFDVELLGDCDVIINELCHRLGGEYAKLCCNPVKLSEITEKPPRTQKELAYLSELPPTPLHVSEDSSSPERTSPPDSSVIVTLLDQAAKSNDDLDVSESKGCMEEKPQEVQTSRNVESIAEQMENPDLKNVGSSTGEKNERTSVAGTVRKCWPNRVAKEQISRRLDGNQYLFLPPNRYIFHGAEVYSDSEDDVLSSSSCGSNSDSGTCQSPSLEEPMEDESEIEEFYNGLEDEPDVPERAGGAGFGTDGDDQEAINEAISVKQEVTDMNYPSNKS
Description: All peptides were prepared by BioPeptide (San Diego, Calif.) and shown to be at least 95% pure by analytical HPLC analysis. Bovine glutamate dehydrogenase (GDH), α-ketoglutarate, NADH and NAD^+ were from Sigma Chemical Company. Full-length, human SIRT1 and the truncated version used for biophysical studies SIRT1(183-664) were prepared as described previously, and shown to have equivalent kinetic properties (Milne et al. (2007) Nature 450, 712-716). The nicotinamidase PNC1 was prepared as described by Denu and colleagues (Smith et al. (2009) Anal Biochem 394, 101-109).
To determine the interaction of STACs with SIRT1 two kinetic methods were employed. One, which was used for TAMRA-peptide, desTAMRA-peptide, des(biotin,TAMRA)-peptide, and p53-20 mer, used a previously described mass spectroscopic method for detection of peptide reaction products (Milne et al. (2007) Nature 450, 712-716). The other, used with peptides of general structure Ac-Arg-His-Lys-Lys^Ac-X, used a continuous, enzyme-coupled method reported previously (Smith et al. (2009) Anal Biochem 394, 101-109), in which the SRT1 product nicotinamide is first converted into nicotinic acid and ammonia by the action of PNC1, and the ammonia then used by GDH to convert α-ketoglutarate into glutamate. This reaction occurs with oxidation of NADH to NAD^+ which is accompanied by a change in absorbance at 340 nm (Δε340=−6,200 M^−1 cm^−1).
The kinetic experiments used to characterize activators were run on a Perkin Elmer Lambda 25 spectrophotometer equipped with a water-jacketed, eight-cell changer maintained at 25° C. In a typical kinetic experiment, all components of the reaction solution except SIRT1 were added to a 1 mL cuvette and allowed to reach thermal equilibrium. Final concentrations of the coupling system components were: 1 μM PNC1, 0.23 mM NADH, 3.4 mM α-ketoglutarate, and 20 U/mL bovine GDH. This solution also contained peptide substrate, NAD^.0., and activator, at concentrations indicated in the text. The final DMSO concentration was kept constant at 1%, and the buffer used in these experiments was 50 mM HEPES, 150 mM NaCl, pH 7.5. While the system was reaching thermal equilibrium, the absorbance was monitored to provide an accurate estimate of the background rate, which was subtracted from the reaction rate after the addition of SIRT1.
The parameters reported in this table were all determined using the PNC1-GDH-coupled assay. Kinetic parameters for the four 20 mers were also estimated using the mass spectroscopy-based assay first described by Milne et al. ((2007) Nature 450, 712-716) and agree with those reported in Table 3.

SIRT1(183-664) = target: T2, SIRT1(183-664) (Homo sapiens, UniProt Q96EB6); assay: ITC binding of STACs to SIRT1(183-664); settings: dissociation constant of SRT:SIRT1 complex, read-out: Kx (μM), ITC
T2 construct: the truncated version used for biophysical studies SIRT1(183-664); made in house
T2 sequence (Q96EB6 183-664): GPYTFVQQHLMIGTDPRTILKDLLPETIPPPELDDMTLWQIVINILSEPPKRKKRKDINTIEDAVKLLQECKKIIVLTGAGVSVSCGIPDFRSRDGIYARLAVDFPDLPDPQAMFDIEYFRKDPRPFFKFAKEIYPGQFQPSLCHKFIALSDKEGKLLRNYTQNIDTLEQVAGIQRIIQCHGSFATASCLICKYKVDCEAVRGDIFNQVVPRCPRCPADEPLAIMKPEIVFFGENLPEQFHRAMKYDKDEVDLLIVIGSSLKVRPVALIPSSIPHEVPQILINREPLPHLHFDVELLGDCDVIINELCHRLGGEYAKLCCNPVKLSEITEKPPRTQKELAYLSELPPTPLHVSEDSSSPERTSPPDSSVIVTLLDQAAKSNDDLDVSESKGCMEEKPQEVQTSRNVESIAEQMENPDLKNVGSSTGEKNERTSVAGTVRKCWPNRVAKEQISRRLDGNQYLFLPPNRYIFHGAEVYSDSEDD
Description: All peptides were prepared by BioPeptide (San Diego, Calif.) and shown to be at least 95% pure by analytical HPLC analysis. Bovine glutamate dehydrogenase (GDH), α-ketoglutarate, NADH and NAD^+ were from Sigma Chemical Company. Full-length, human SIRT1 and the truncated version used for biophysical studies SIRT1(183-664) were prepared as described previously, and shown to have equivalent kinetic properties (Milne et al. (2007) Nature 450, 712-716). The nicotinamidase PNC1 was prepared as described by Denu and colleagues (Smith et al. (2009) Anal Biochem 394, 101-109). ITC experiments were performed using either a VP-ITC system or iTC200 system (MicroCal) at 26° C. in a buffer composed of 137 mM NaCl, 2.7 mM KCl, 1 mM MgCl2, 2 mM TCEP, 5% (v/v) glycerol and 50 mM HEPES-NaOH, pH 7.3. SIRT1(183-664) was purified and dialyzed against the buffer, centrifuged, and degassed before the experiment. The peptide and compounds were dissolved in the final dialysis buffer and their pH values were adjusted to match that of the protein solution. […] To characterize this interaction using the iTC200 system, 1 mM TAMRA-peptide was injected in 20 aliquots of 2 μL, (except the first injection, which was 0.5 μL) into a 0.202 mL sample cell containing 100 μM STAC. For STACs with poor solubility, the concentrations were adjusted accordingly. […] To characterize the interaction of a STAC with SIRT1(183-664) on the VP-ITC system, 100 μM enzyme was injected in 35 aliquots of 8 μL, (except the first injection, which was 2 μL) into a 1.47 mL sample cell containing 10 μM STAC. […] In all cases, data was corrected for the heat of dilution and fitted using a nonlinear least-squares routine using a single-site binding model with Origin for ITC v7.0383 (Microcal) with the stoichiometry (n), the enthalpy of the reaction (ΔH) and the association constant (Ka) calculated.

Row | Compound | kc (SIRT1) [s⁻¹] | kc/K1 (SIRT1) | Kd (SIRT1(183-664)) [µM] | Km (SIRT1) [µM]
1 | CC(=O)NCCCC[C@H](NC(=O)[C@H](CCCCN)NC(=O)[C@H](Cc1c[nH]cn1)NC(=O)[C@H](CCCNC(=N)N)NC(C)=O)C(N)=O [RHKK^Ac, Ac-Arg-His-Lys-Lys^Ac-NH2] (Ac-RHKK(Ac)-NH2) | 0.14 | 6.0 | – | –
2 | CC(=O)NCCCC[C@H](NC(=O)[C@H](CCCCN)NC(=O)[C@H](Cc1c[nH]cn1)NC(=O)[C@H](CCCNC(=N)N)NC(C)=O)C(=O)Nc1ccc2c(C)cc(=O)oc2c1 [RHKK^Ac-AMC, Ac-Arg-His-Lys-Lys^Ac-AMC] (Ac-RHKK(Ac)-{AMC}) | 0.091 | 0.8 | – | –
3 | CC(=O)NCCCC[C@H](NC(=O)[C@H](CCCCN)NC(=O)[C@H](Cc1c[nH]cn1)NC(=O)[C@H](CCCNC(=N)N)NC(C)=O)C(=O)N[C@@H](C)C(N)=O [RHKK^AcA, Ac-Arg-His-Lys-Lys^Ac-Ala] (Ac-RHKK(Ac)A-NH2) | 0.15 | 12 | – | –
4 | CC(=O)NCCCC[C@H](NC(=O)[C@H](CCCCN)NC(=O)[C@H](Cc1c[nH]cn1)NC(=O)[C@H](CCCNC(=N)N)NC(C)=O)C(=O)N[C@@H](Cc1ccccc1)C(N)=O [RHKK^AcF, Ac-Arg-His-Lys-Lys^Ac-Phe-NH2] (Ac-RHKK(Ac)F-NH2) | 0.16 | 23 | – | –
5 | CC(=O)NCCCC[C@H](NC(=O)[C@H](CCCCN)NC(=O)[C@H](Cc1c[nH]cn1)NC(=O)[C@H](CCCNC(=N)N)NC(C)=O)C(=O)N[C@@H](Cc1c[nH]c2ccccc12)C(N)=O [RHKK^AcW, Ac-Arg-His-Lys-Lys^Ac-Trp-NH2] (Ac-RHKK(Ac)W-NH2) | 0.19 | 48 | – | –
6 | CCCNc1cc(-c2nc3c(NC(=O)c4ccc(CN5CCNCC5)cc4)cccc3[nH]2)ccn1 [drawing 20] | – | – | 0.43 | –
7 | CN(C)CCCNc1cc(-c2nc3c(NC(=O)c4ccc(CN5CCNCC5)cc4)cccc3[nH]2)ccn1 [drawing 21] | – | – | 0.32 | –
8 | Ac-EEK^(biotin)GQSTSSHSK^AcNle-STEGK^(5-TMR)EE-NH2 [TAMRA-peptide] | 0.036 | 4.3 | – | 8.3
9 | EEKGQSTSSHK^AcJSTEGKEE [des(Biotin,TAMRA)-peptide] | 0.044 | 1.1 | – | 40
10 | SKKGQSTSRHKK^AcLJKTEGP [p53-20mer] | 0.36 | 42 | – | 8.5
